Where “and” joins values, the source holds several entries; their conditions need not be identical. Equal entries are not always repeated. Where two headings read alike, the source gives them in different places.
Target: PI3Kγ (Homo sapiens, UniProt P48736)
Test: PI3K Inhibition Assay (33P-ATP, PI(4,5)P2 substrate, filter plate scintillation counting)
Assay type: biochemical
Conditions: 3 μM ATP, 30 μM PI(4,5)P2, 2 nM final enzyme, 30 min at 25° C., competitive tight binding Ki fit
Protocol: One test well also contained 1.5 μL of DMSO with no compound. […] Using a Titertek Multidrop, 50 μL of Reaction Mix [100 mM HEPES pH 7.5, 50 mM NaCl, 10 mM DTT, 0.2 mg/mL BSA, 60 μM phosphatidylinositol(4,5)-bisphosphate diC16 (PI(4,5)P2; Avanti Polar Lipids, Cat. No. 840046P) and PI3K isoform of interest (see Table 3 for isoform concentrations)] was added to each well. To initiate the reaction, 50 μL of ATP Mix [20 mM MgCl2, 6 μM ATP (100 μCi/μmole ^33P-ATP)] was added each well, followed by incubating the wells for 30 min. at 25° C. Final concentrations in each well were 50 mM HEPES 7.5, 10 mM MgCl2, 25 mM NaCl, 5 mM DTT, 0.1 mg/mL BSA, 30 μM PI(4,5)P2, 3 μM ATP, and the PI3K isoform of interest (see Table 3). Final compound concentrations in each well ranged from 10 μM to 1 nM.
After incubation, the reactions in each well were quenched by addition of 50 μL of stop solution [30% TCA/Water, 10 mM ATP]. […] 50 μL of scintillation fluid was added to each well and the plate read on a Perkin-Elmer TopCount™ NXT liquid scintillation counter to obtain ^33P-counts representing inhibition values.
The value for the background well was subtracted from the value obtained for each test well and the data were fit to the competitive tight binding Ki equation described by Morrison and Stone, Comments Mol. Cell Biophys.

Sequence of PI3Kγ (P48736 whole entry, species assumed): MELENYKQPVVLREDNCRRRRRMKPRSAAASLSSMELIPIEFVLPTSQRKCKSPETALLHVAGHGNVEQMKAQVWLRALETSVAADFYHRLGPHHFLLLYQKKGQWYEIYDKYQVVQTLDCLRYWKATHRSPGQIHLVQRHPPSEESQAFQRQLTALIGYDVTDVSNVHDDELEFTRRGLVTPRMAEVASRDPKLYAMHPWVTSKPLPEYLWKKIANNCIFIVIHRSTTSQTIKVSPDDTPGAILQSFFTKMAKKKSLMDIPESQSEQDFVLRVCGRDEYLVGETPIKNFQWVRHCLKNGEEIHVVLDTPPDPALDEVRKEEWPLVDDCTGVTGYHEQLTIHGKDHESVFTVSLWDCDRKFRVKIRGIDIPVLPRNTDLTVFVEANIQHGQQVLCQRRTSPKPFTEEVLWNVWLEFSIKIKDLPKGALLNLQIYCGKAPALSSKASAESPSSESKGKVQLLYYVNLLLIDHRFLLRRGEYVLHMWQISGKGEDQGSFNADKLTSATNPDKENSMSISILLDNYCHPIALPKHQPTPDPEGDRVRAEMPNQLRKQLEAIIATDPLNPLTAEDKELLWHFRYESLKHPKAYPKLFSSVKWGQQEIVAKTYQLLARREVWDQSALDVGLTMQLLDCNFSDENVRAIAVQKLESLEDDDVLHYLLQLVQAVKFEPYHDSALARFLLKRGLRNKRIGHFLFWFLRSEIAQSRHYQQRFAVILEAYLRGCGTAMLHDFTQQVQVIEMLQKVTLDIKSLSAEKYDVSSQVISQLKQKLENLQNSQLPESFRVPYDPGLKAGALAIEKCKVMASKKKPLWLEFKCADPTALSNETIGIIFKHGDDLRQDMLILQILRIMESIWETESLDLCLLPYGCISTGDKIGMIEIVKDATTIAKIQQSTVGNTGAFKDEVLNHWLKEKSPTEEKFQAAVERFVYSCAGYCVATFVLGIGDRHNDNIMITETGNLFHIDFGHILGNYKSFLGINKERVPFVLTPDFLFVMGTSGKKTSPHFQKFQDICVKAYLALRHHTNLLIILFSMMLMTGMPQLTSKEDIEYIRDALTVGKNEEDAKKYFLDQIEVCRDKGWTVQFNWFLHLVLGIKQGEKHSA

Compound | Ki (read-out: Ki for PI3Kγ) | Ki (Ki for PI3Kγ) [nM]
COc1cc(N2CCc3nc(NC(=O)NCCCl)sc3C2)cnc1OC [Compound 11] | – | < 100
COc1cncc(N2CCc3nc(NC(=O)CF)sc3C2)c1 [Compound 19] | – | < 100
COc1cc(N2CCc3nc(NC(=O)NCCCN(C)C)sc3C2)cnc1Cl [Compound 37] | < 100 nM | –
COc1cc(N2CCc3nc(NC(=O)NCCc4cn(CCF)cn4)sc3C2)cnc1Cl [Compound 38] | < 100 nM | –
CCOCCCNC(=O)Nc1nc2c(s1)CN(c1cnc(Cl)c(OC)c1)CC2 [Compound 39] | < 100 nM | –
COc1cc(N2CCc3nc(NC(=O)CCNC(C)=O)sc3C2)cnc1Cl [Compound 44] | < 100 nM | –
COc1cc(N2CCc3nc(NC(=O)NCCCO)sc3C2)cnc1Cl [Compound 50] | < 100 nM | –
COc1cc(N2CCc3nc(NC(=O)N4CC(OC)C4)sc3C2)cnc1Cl [Compound 51] | < 100 nM | –
CCOC(=O)CCNC(=O)Nc1nc2c(s1)CN(c1cnc(Cl)c(OC)c1)CC2 [Compound 52] | < 20 nM and 3 nM and < 100 nM | –
COc1cc(N2CCc3nc(NC(=O)N4CCCC4)sc3C2)cnc1Cl [Compound 57] | < 100 nM | –

More lines, main results first:

Ki (read-out: Ki for PI3Kγ) | Compound | Ki (Ki for PI3Kγ) [nM]
< 100 nM | COCC(=O)Nc1nc2c(s1)CN(c1cncc(OC)c1)CC2 [Compound 4] | –
< 100 nM | CCNC(=O)Nc1nc2c(s1)CN(c1cncc(C(F)(F)F)c1)CC2 [Compound 6] | –
< 100 nM | CC(=O)Nc1nc2c(s1)CN(c1cncc(C(F)(F)F)c1)CC2 [Compound 7] | –
< 100 nM | COCC(=O)Nc1nc2c(s1)CN(c1cncc(C(F)(F)F)c1)CC2 [Compound 8] | –
< 100 nM | CCNC(=O)Nc1nc2c(s1)CN(c1cnc(OC)c(OC)c1)CC2 [Compound 10] | –
< 20 nM | CCCOCCNC(=O)Nc1nc2c(s1)CN(c1cncc(C(F)(F)F)c1)CC2 [Compound 12] | –
< 20 nM | COc1ncc(N2CCc3nc(NC(C)=O)sc3C2)nc1OC [Compound 14, N-(4,5,6,7-tetrahydro-5-(5,6-dimethoxypyrazin-2-yl)thiazolo[5,4-c]pyridin-2-yl)acetamide] | –
< 100 nM | COc1cc(N2CCc3nc(NC=O)sc3C2)cnc1OC [Compound 15] | –
< 100 nM | CCCOCCNC(=O)Nc1nc2c(s1)CN(c1cnc(OC)c(OC)c1)CC2 [Compound 16] | –
< 100 nM | CC(=O)Nc1nc2c(s1)CN(c1cncc(C(F)(F)F)n1)CC2 [Compound 17] | –
< 100 nM | COc1cncc(N2CCc3nc(Nc4cnccn4)sc3C2)c1 [Compound 18, 4,5,6,7-tetrahydro-5-(5-methoxypyridin-3-yl)-N-(pyrazin-2-yl)thiazolo[5,4-c]pyridin-2-amine] | –
< 100 nM | COc1cc(N2CCc3nc(NC(=O)CCNC(=O)c4ccccn4)sc3C2)cnc1OC [Compound 32] | –
< 100 nM | COc1cc(N2CCc3nc(NC(=O)CNC(=O)c4ccccn4)sc3C2)cnc1OC [Compound 33] | –
< 100 nM | CCOC(=O)CCCNC(=O)Nc1nc2c(s1)CN(c1cnc(Cl)c(OC)c1)CC2 [Compound 34] | –
< 100 nM | COCCNC(=O)Nc1nc2c(s1)CN(c1cnc(Cl)c(OC)c1)CC2 [Compound 35] | –

From US8524906B2, “Tetrahydrothiazolopyridine inhibitors of phosphatidylinositol 3-kinase” (Vertex Pharmaceuticals Incorporated, priority 2009, dated 2013)
